Measurements as given in patent EP4810065A1, “COMBINED USE OF ANTIBODY-DRUG CONJUGATE AND POLY(ADENOSINE D[…]) POLYMERASE INHIBITOR” (Jiangsu Hansoh Pharmaceutical Group Co., Ltd., priority 2023, dated 2025).

Assays:
EN cells = assay: CTG growth inhibition, drug A/drug B cross-combination, 6 days; format: cell-based, human; settings: Drug B alone, 4.12-1000.00 nM
Procedure: (§1) Tumor cells in good growth condition were seeded into 96-well plates. After overnight growth onto the wall, different concentrations of the test substances were administered, with different concentrations of the two test substances arranged in a cross-combination design.
(§2) The starting concentration of test drug A was 1000 nM, which was subjected to 1:3 serial dilution to generate a total of 6 concentration levels; the starting concentration of test drug B was set at 1000 nM, which was subjected to 1:3 serial dilution to generate a total of 6 concentration levels. After the combined test substances had acted on each cell line for 6 days, the CTG method was used to detect the in vitro proliferation inhibitory effect of the combined use of the test drugs on tumor cells. Table 2-1 Drug A and drug B treatment dosing scheme
(§3) Based on the signal values measured by the microplate reader, the cell growth inhibition rate was calculated according to the following formula: Growth inhibition rate % (growth inhibition%) = [1-(measured value-minimum value mean-background value)/(maximum value mean-background value-minimum value mean)] ×100% (measured value: reading value of compound wells; minimum value: reading value of ZPE wells (reading value of wells containing cell culture medium without cells); maximum value: reading value of HPE wells (cell reading value of the DMSO treatment group); background value: cell background measured value before addition of the compound).

CAL-51 cells = assay: as above; format: cell-based, human; settings: Drug B alone, 4.12-1000.00 nM
Procedure: as §1, §2, §3

MX-1 cells = assay: as above; format: cell-based, human; settings: Drug B alone, 4.12-1000.00 nM
Procedure: as §1, §2, §3

HEC-1A cells = assay: as above; format: cell-based, human; settings: Drug B alone, 4.12-1000.00 nM
Procedure: as §1, §2, §3

OAW42 cells = assay: as above; format: cell-based, human; settings: Drug B alone, 4.12-1000.00 nM
Procedure: as §1, §2, §3

SK-OV-3 cells = assay: as above; format: cell-based, human; settings: Drug B alone, 4.12-1000.00 nM
Procedure: as §1, §2, §3

COV362 cells = assay: as above; format: cell-based, human; settings: Drug B alone, 4.12-1000.00 nM
Procedure: as §1, §2, §3

[1] = test system: RL95-2 endometrial cancer cell mouse xenografts; assay: RL95-2 human endometrial cancer subcutaneous xenograft model; format: in vivo, nude mice
Procedure: (§4) Drug A was prepared by dilution with normal saline, and drug B was prepared using 0.5% HPMC; Human endometrial cancer cells RL95-2 were cultured in vitro in a cell incubator at 37°C and 5% CO2. Routine digestion treatment and passaging were carried out twice a week using trypsin-EDTA. When the cell confluence was 80%-90% and the number of cells reached the requirement, the cells were collected, counted, and inoculated.
(§5) RL95-2 cells were resuspended in PBS, the density after resuspension was 100 × 10^6/mL, the resuspended cells were mixed with an equal volume of Matrigel, inoculated subcutaneously into the right dorsal side of each mouse, 0.1 mL was inoculated into each mouse (5 × 10^6 cells/animal), and when the average tumor volume grew to 100-150 mm^3, grouping was carried out (D1), and administration was started on the day of grouping. The mice were administered by gavage (p.o.) once daily; the mice were administered by tail vein injection (i.v.) as a single administration; the administration volume was 10 mL/kg; the vehicle group was given the same volume of "vehicle"; the specific administration doses and administration regimens are shown in Table 5-1. Tumor volume was measured, mouse body weight was weighed, and data were recorded.
(§6) The experimental indicator was to examine the effect of the drug on tumor growth, and the specific indicator was the tumor growth inhibition rate TGI (%).
(§7) The tumor diameter was measured twice a week with a vernier caliper, and the calculation formula for tumor volume (V) was:V = 1/2×a×b^2 where a, b respectively indicate length and width.
(§8) Calculation of TGI (%): When there was no tumor regression, TGI (%) = [1 - (average tumor volume of a certain treatment group at the end of administration - average tumor volume of that treatment group at grouping)/(average tumor volume of the vehicle control group at the end of treatment - average tumor volume of the vehicle control group at grouping)] × 100%. When there was tumor regression, TGI (%) = [1 - (average tumor volume of a certain treatment group at the end of administration - average tumor volume of that treatment group at grouping)/average tumor volume of that treatment group at grouping] × 100%.
(§9) At the end of the experiment, upon reaching the experimental endpoint, or when the average tumor volume reached 2000 mm^3, the animals were euthanized under CO2 anesthesia, and then dissected for tumor collection and photographing.
(§10) The experimental data were analyzed and plotted using GraphPad Prism 9.4. Based on the tumor volume data of each group at different time points, Dunnett's multiple comparisons test in Two-way ANOVA was used for statistical analysis to evaluate differences among groups. […] Table 5-1. Dosing regimen of drug A in combination with drug B in the RL95-2 model

[2] = test system: human ovarian cancer OV0243; assay: OV0243 human ovarian cancer PDX subcutaneous xenograft model; format: in vivo, BALB/c nude mice; settings: for TGI (%): D27, tumor regression formula
Procedure: • Drug A was prepared by dilution with normal saline, and drug B was prepared using 0.5% HPMC; • OV0243 (mild cachexia), human ovarian cancer tumor tissue, was provided by Crown Bioscience (Beijing) Inc. • BALB/c nude mice, female, body weight 16-22 g, were purchased from Jiangsu Jicui Yaokang Biotechnology Co., Ltd.
OV0243 human ovarian cancer tissue was uniformly cut into tumor pieces with a diameter of 2-3 mm and inoculated subcutaneously at the right front scapular region of BALB/c nude mice, and tumor growth was regularly observed. When the average tumor volume reached 100-150 mm^3, random grouping was performed based on the tumor size and mouse body weight in accordance with Table 4-1. The tumor diameter was measured twice a week with a vernier caliper, and the calculation formula for tumor volume (V) was:V = 1/2×a×b^2 where a, b respectively indicate length and width.
as §6, §8, §9
The experimental data were analyzed and plotted using GraphPad Prism 9.4. Based on the tumor volume data of each group at different time points, Dunnett's multiple comparisons test in Two-way ANOVA was used for statistical analysis to evaluate differences among groups.
The invivoSyn method was used to analyze the synergistic effect of the combination treatment. First, based on the exponential growth model, the tumor growth rate of each mouse (eGR, exponential growth rate) and the average tumor growth rate of each group (eGRg) were calculated. Then, the relative survival rate of the treatment group and the control group was calculated by using the conditional probability formula Pr(T|C)=ST/SC, wherein SA, SB, and SAB are respectively defined as the relative survival rates of single-drug group A, single-drug group B, and the combination administration group at time point t. SA = (exp(eGRA*t))/(exp(eGRC*t)) [formula] SB = (exp(eGRB*t))/(exp(eGRC*t)) [formula] SAB = (exp(eGRAB*t))/(exp(eGRC*t)) [formula]
Based on the highest single-drug effect model (HSA, Highest Single Agent), the expected survival rate E(SAB) of the combination administration group was calculated. For the HSA model, E(SAB) = min(SA, SB). CI (Combination Index) is defined as the ratio of the observed survival rate SAB of the combination administration group to E(SAB), while the synergistic effect score (SS, Synergy Score) is defined as the percentage difference between E(SAB) and SAB. When the CI value is less than 1 or the SS value is greater than 0, the combination is considered to have a synergistic effect. p values and confidence intervals were calculated using the stratified bootstrap method (Stratified bootstrap). Table 4-1. Dosing regimen of drug A in combination with drug B in the OV0243 model

[3] = test system: MX-1 human breast cancer cell mouse xenografts; assay: MX-1 human breast cancer subcutaneous xenograft model; format: in vivo, Balb/c nude mice
Procedure: as §4, with “breast” for “endometrial”, “cancer MX-1” for “cancer”, “cells” for “cells RL95-2”, “cultured as a monolayer” for “cultured”, “vitro under culture conditions of DMEM/F12 medium supplemented with 10% fetal bovine serum, 100 U/mL penicillin, and 100 µg/mL streptomycin, and cultured” for “vitro”
Balb/c nude mice, female, body weight 17-25 g, were purchased from Shanghai Bi Kai Ke Yi Biotechnology Co., Ltd.
as §5, with “MX-1 cells were” for “RL95-2 cells were”, “resuspension was 100×10^6/mL, the resuspended” for “resuspension was 100 × 10^6/mL, the resuspended”, “each mouse (5×10^6 cells/animal), and” for “each mouse (5 × 10^6 cells/animal), and”, “(D1), and drug administration was” for “(D1), and administration was”, “in Table 3-1. Tumor volume” for “in Table 5-1. Tumor volume”
as §6, §7, §8, §9
as §10, with “3-1.” for “5-1.”, “MX-1” for “RL95-2”

[4] = D0 (at grouping), Drug B 1 mg/kg p.o. QD*28 times
[5] = D28, Drug B 1 mg/kg p.o. QD*28 times

CCc1cc2ncc(CN3CC=C(c4ccc(C(=O)NC)nc4)CC3)cc2[nH]c1=O [Drug B, 1'-((7-ethyl-6-oxo-5,6-dihydro-1,5-naphthyridin-3-yl)methyl)-N-methyl-1',2',3',6'-tetrahydro-[3,4'-bipyridine]-6-carboxamide]
Growth inhibition rate (EN cells; drug B 4.12 nM): 31.13% | Growth inhibition rate (EN cells; drug B 12.35 nM): 22.59% | Growth inhibition rate (EN cells; drug B 37.04 nM): 24.15% | Growth inhibition rate (EN cells; drug B 111.11 nM): 27.18% | Growth inhibition rate (EN cells; drug B 333.33 nM): 24.54% | Growth inhibition rate (CAL-51 cells; drug B 4.12 nM): 9.89% | Growth inhibition rate (CAL-51 cells; drug B 12.35 nM): 8.42% | Growth inhibition rate (CAL-51 cells; drug B 37.04 nM): 12.34% | Growth inhibition rate (CAL-51 cells; drug B 111.11 nM): 11.19% | Growth inhibition rate (CAL-51 cells; drug B 333.33 nM): 15.02% | Growth inhibition rate (MX-1 cells; drug B 4.12 nM): 33.15% | Growth inhibition rate (MX-1 cells; drug B 12.35 nM): 31.24% | Growth inhibition rate (MX-1 cells; drug B 37.04 nM): 33.85% | Growth inhibition rate (MX-1 cells; drug B 111.11 nM): 40.59% | Growth inhibition rate (MX-1 cells; drug B 333.33 nM): 46.92% | Growth inhibition rate (HEC-1A cells; drug B 4.12 nM): 3.73% | Growth inhibition rate (HEC-1A cells; drug B 12.35 nM): 4.25% | Growth inhibition rate (HEC-1A cells; drug B 37.04 nM): 5.84% | Growth inhibition rate (HEC-1A cells; drug B 111.11 nM): 9.01% | Growth inhibition rate (HEC-1A cells; drug B 333.33 nM): 7.40% | Growth inhibition rate (OAW42 cells; drug B 4.12 nM): 6.29% | Growth inhibition rate (OAW42 cells; drug B 12.35 nM): 4.07% | Growth inhibition rate (OAW42 cells; drug B 37.04 nM): 6.30% | Growth inhibition rate (OAW42 cells; drug B 111.11 nM): 7.53% | Growth inhibition rate (OAW42 cells; drug B 333.33 nM): 12.46% | Growth inhibition rate (SK-OV-3 cells; drug B 4.12 nM): 3.96% | Growth inhibition rate (SK-OV-3 cells; drug B 12.35 nM): 2.49% | Growth inhibition rate (SK-OV-3 cells; drug B 37.04 nM): 2.34% | Growth inhibition rate (SK-OV-3 cells; drug B 111.11 nM): 6.14% | Growth inhibition rate (SK-OV-3 cells; drug B 333.33 nM): 9.22% | Growth inhibition rate (COV362 cells; drug B 4.12 nM): 22.59% | Growth inhibition rate (COV362 cells; drug B 12.35 nM): 22.45% | Growth inhibition rate (COV362 cells; drug B 37.04 nM): 21.18% | Growth inhibition rate (COV362 cells; drug B 111.11 nM): 25.95% | Growth inhibition rate (COV362 cells; drug B 333.33 nM): 23.74% | Average tumor volume (mm^3) + SEM [1, 4]: 134+7 mm^3 | Average tumor volume (mm^3) + SEM [1, 5]: 1097+109 mm^3 | T/C (%) [1, 5]: 95.50% | TGI (%) [1, 5]: 5.08% | tolerability ([1]; RL95-2 tumor-bearing mice): could well tolerate | tumor growth inhibition ([1]; RL95-2 xenograft mouse model): had no obvious inhibitory effect on tumor growth | Average tumor volume (mm^3) ± SEM ([2]; D0 (at grouping), Drug B 0.1 mg/kg p.o. QD*28 times): 137±2 mm^3 | Average tumor volume (mm^3) ± SEM [2, 4]: 138±2 mm^3 | TGI (%) ([2]; Drug B 0.1 mg/kg p.o. QD*28 times): 129.84% | TGI (%) ([2]; Drug B 1 mg/kg p.o. QD*28 times): 191.94% | Average tumor volume (mm^3) ± SEM ([2]; Day 27, Drug B 0.1 mg/kg p.o. QD*28 times): 96±14 mm^3 | Average tumor volume (mm^3) ± SEM ([2]; Day 27, Drug B 1 mg/kg p.o. QD*28 times): 11±6 mm^3 | Average tumor volume (mm^3) ± SEM ([2]; Day 55, Drug B 0.1 mg/kg p.o. QD*28 times): 3±3 mm^3 | Average tumor volume (mm^3) ± SEM ([2]; Day 55, Drug B 1 mg/kg p.o. QD*28 times): 0±0 mm^3 | Average tumor volume (mm^3) ± SEM ([2]; Day 83 (day 56 after drug withdrawal), Drug B 0.1 mg/kg p.o. QD*28 times): 78±27 mm^3 | Average tumor volume (mm^3) ± SEM ([2]; Day 83 (day 56 after drug withdrawal), Drug B 1 mg/kg p.o. QD*28 times): 50±23 mm^3 | tumor growth inhibition, monotherapy ([2]; OV0243 model, conclusion): significantly inhibit the growth of xenograft tumors in nude mice | tolerability ([2]; OV0243 tumor-bearing mice): could well tolerate | body weight decrease of 1 animal ([2]; drug B 0.1 mg/kg, by day 51, euthanasia): greater than 20% | body weight decrease of 1 animal ([2]; drug B 0.1 mg/kg, day 23): 17.39% | animals with partial tumor regression ([2]; drug B 0.1 mg/kg, day 27): 5/6 | average body weight change rate ([2]; drug B 0.1 mg/kg, day 27): 2.18% | animals with complete tumor regression ([2]; drug B 1 mg/kg, day 27): 3/6 | animals with partial tumor regression ([2]; drug B 1 mg/kg, day 27): 3/6 | average body weight change rate ([2]; drug B 1 mg/kg, day 27): 3.75% | Average tumor volume (mm^3) ± SEM ([3]; D0 (at grouping), Drug B 0.3 mg/kg): 148±7 mm^3 | Average tumor volume (mm^3) ± SEM ([3]; D28, Drug B 0.3 mg/kg): 199±20 mm^3 | TGI (%) ([3]; D28, Drug B 0.3 mg/kg): 97.25% | Partial regression ([3]; D28, Drug B 0.3 mg/kg, animals with partial regression/animals in group): 2/8 | tolerability (body weight, death, abnormal symptoms) ([3]; MX-1 tumor-bearing mice): could well tolerate
